Measurements published in US20060069132A1, “Azolecarboxamide herbicides” (priority 2004, published 2006).

Tests used:
Surinam grass = assay: Test B pre-/postemergence herbicide test; format: in vivo, Urochloa decumbens; conditions: for Surinam Grass plant response rating: postemergence
In short: (§1)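 Greenhouse pot assay with simultaneous preemergence (treated seed) and postemergence (2–18 cm seedlings) applications of surfactant-containing, non-phytotoxic solvent formulations. Response scored visually 13–15 days later on a 0–100 scale, 100 meaning complete control.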

[1] = tested on: small flower umbrella sedge; assay: Test B flooded paddy test; format: in vivo, Cyperus difformis; conditions: 1000 g ai/ha, scale 0 to 100 (0 no effect, 100 complete control)
In short: (§2)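 Greenhouse test; postemergence application to plants at 1–4 leaves (2–18 cm); paddy species at 2 leaves; evaluated visually vs controls at 13–15 days; scale 0–100 (100 = complete control).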

wheat = assay: Test B postemergence herbicide test; format: in vivo, Triticum aestivum; set-up: key to Wheat plant response rating: 0 = no effect, 100 = complete control; conditions: postemergence
In short: (§3)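 Postemergence plants were sprayed with formulated test chemicals at 2 to 18 cm height (1- to 4-leaf stage); paddy species were grown to the 2-leaf stage. After 13 to 15 days in a greenhouse, injury was rated visually against untreated controls on a 0–100 scale (0 = no effect, 100 = complete control).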

rice [2] = assay: Test B pre-/postemergence herbicide test; format: in vivo, Oryza sativa; conditions: 0 = no effect, 100 = complete control, preemergence
In short: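 Species tested were Echinochloa crus-galli, Ipomoea coccinea, Xanthium strumarium and Oryza sativa, treated both before emergence and at the 1- to 4-leaf stage; rice and barnyardgrass were also tested under flooding at 2 leaves. Greenhouse incubation lasted 13–15 days before visual 0–100 scoring.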

blackgrass = assay: Test B postemergence herbicide test; format: in vivo, Alopecurus myosuroides; conditions: postemergence, visual rating, scale 0 (no effect) to 100 (complete control)
In short: as §2

barnyardgrass [3] = assay: Test B pre-/postemergence herbicide test; format: in vivo, Echinochloa crus-galli; conditions: for Barnyardgrass plant response rating: postemergence, scale 0 (no effect) to 100 (complete control)
In short: as §1

cocklebur = assay: Test B pre-/postemergence herbicide test; format: in vivo, Xanthium strumarium; conditions: for Cocklebur plant response rating: postemergence, scale 0 (no effect) to 100 (complete control)
In short: as §1

ducksalad [4] = assay: Test B flooded paddy test; format: in vivo, Heteranthera limosa; conditions: 1000 g ai/ha, scale 0 to 100 (0 no effect, 100 complete control)
In short: as §2

barnyardgrass [5] = assay: Test C flooded paddy test; format: in vivo, Echinochloa crus-galli
In short: (§4)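 Postemergence sprays applied to plants 2 to 18 cm tall (1- to 4-leaf stage); paddy species grown to 2-leaf stage under flooding. After 12 to 14 days in greenhouse, visual rating versus untreated controls on 0–100 scale (0 no effect, 100 complete control).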

[6] = tested on: smallflower umbrella sedge; assay: Test C flooded paddy test; format: in vivo, Cyperus difformis
large crabgrass = assay: Test B pre-/postemergence herbicide test; format: in vivo, Digitaria sanguinalis; conditions: for Crabgrass, Large plant response rating: postemergence
In short: as §1

velvetleaf = assay: Test B pre-/postemergence herbicide test; format: in vivo, Abutilon theophrasti; conditions: for Velvetleaf plant response rating: postemergence
In short: as §1

rice [7] = assay: Test B flooded paddy test; format: in vivo, Oryza sativa; conditions: 1000 g ai/ha, scale 0 to 100 (0 no effect, 100 complete control)
In short: as §2

ducksalad [8] = assay: Test C flooded paddy test; format: in vivo, Heteranthera limosa
giant foxtail = assay: Test B pre-/postemergence herbicide test; format: in vivo, Setaria faberi; conditions: for Foxtail, Giant plant response rating: postemergence
In short: as §1

corn = assay: Test B pre-/postemergence herbicide test; format: in vivo, Zea mays; conditions: for Corn plant response rating: postemergence
In short: as §1

wild oat = assay: Test B postemergence herbicide test; format: in vivo, Avena fatua; conditions: postemergence
In short: as §3

morningglory = assay: Test B pre-/postemergence herbicide test; format: in vivo, Ipomoea coccinea; conditions: for Morningglory plant response rating: postemergence
In short: as §1

pigweed = assay: Test B pre-/postemergence herbicide test; format: in vivo, Amaranthus retroflexus; conditions: for Pigweed plant response rating: postemergence
In short: as §1

rice [9] = assay: Test C flooded paddy test; format: in vivo, Oryza sativa
In short: as §4

lambsquarters = assay: Test B pre-/postemergence herbicide test; format: in vivo, Chenopodium album; conditions: for Lambsquarters plant response rating: postemergence
In short: as §1

barnyardgrass [10] = assay: Test B flooded paddy test; format: in vivo, Echinochloa crus-galli; conditions: 1000 g ai/ha, scale 0 to 100 (0 no effect, 100 complete control)
In short: as §2

[11] = 125 g ai/ha, 0 = no effect, 100 = complete control, preemergence
[12] = 500 g ai/ha, visual rating, 0 = no effect, 100 = complete control, preemergence
[13] = 125 g ai/ha, visual rating, scale 0 (no effect) to 100 (complete control)
[14] = 500 g ai/ha, scale 0 to 100, 0 is no effect, 100 is complete control
[15] = 125 g ai/ha, scale 0 to 100 (0 no effect, 100 complete control)
[16] = 250 g ai/ha, scale of 0 to 100, 0 is no effect, 100 is complete control
[17] = 500 g ai/ha, visual rating after 12 to 14 days, scale 0 to 100 (0 no effect, 100 complete control)

SMILES: CCn1nc(C(C)(C)C)cc1C(=O)Nc1cncc(C(=O)N(C)C)c1 [Compound 258]
- Surinam Grass plant response rating (0 to 100 scale) (Surinam grass; [11]): 0
- Plant response rating, Surinam Grass (Surinam grass; [12]): 30
- Surinam Grass plant response rating (Surinam grass; [13]): 0
- Surinam Grass plant response rating (Surinam grass; [14]): 10
- Sedge, Umbrella plant response rating [1]: 70
- Wheat plant response rating (wheat; [13]): 20
- Wheat plant response rating (wheat; [14]): 20
- Rice plant response rating (0 to 100 scale) (rice [2]; 125 g ai/ha): 20
- Plant response rating, Rice (rice [2]; 500 g ai/ha, visual rating): 90
- Blackgrass plant response rating (blackgrass; 125 g ai/ha): 10
- Blackgrass plant response rating (blackgrass; 500 g ai/ha): 10
- Barnyardgrass plant response rating (0 to 100 scale) (barnyardgrass [3]; [11]): 70
- Plant response rating, Barnyardgrass (barnyardgrass [3]; [12]): 90
- Barnyardgrass plant response rating (barnyardgrass [3]; 125 g ai/ha, visual rating): 0
- Barnyardgrass plant response rating (barnyardgrass [3]; 500 g ai/ha, visual rating): 0
- Cocklebur plant response rating (0 to 100 scale) (cocklebur; [11]): 0
- Plant response rating, Cocklebur (cocklebur; [12]): 0
- Cocklebur plant response rating (cocklebur; 125 g ai/ha, visual rating): 20
- Cocklebur plant response rating (cocklebur; 500 g ai/ha, visual rating): 30
- Ducksalad plant response rating (ducksalad [4]): 90
- Barnyardgrass plant response rating (barnyardgrass [5]; 62 g ai/ha, scale 0 to 100 (0 no effect, 100 complete control)): 0
- Barnyardgrass plant response rating (barnyardgrass [5]; [15]): 0
- Barnyardgrass plant response rating (barnyardgrass [5]; [16]): 15
- Plant response rating, Barnyardgrass (barnyardgrass [5]; [17]): 45
- Sedge, Umbrella plant response rating ([6]; 62 g ai/ha, scale 0 to 100): 0
- Sedge, Umbrella plant response rating [6, 15]: 20
- Sedge, Umbrella plant response rating [6, 16]: 70
- Plant response rating, Sedge, Umbrella [6, 17]: 80
- Crabgrass, Large plant response rating (0 to 100 scale) (large crabgrass; [11]): 10
- Plant response rating, Crabgrass, Large (large crabgrass; [12]): 50
- Crabgrass, Large plant response rating (large crabgrass; [13]): 0
- Crabgrass, Large plant response rating (large crabgrass; [14]): 0
- Velvetleaf plant response rating (0 to 100 scale) (velvetleaf; [11]): 0
- Plant response rating, Velvetleaf (velvetleaf; [12]): 60
- Velvetleaf plant response rating (velvetleaf; [13]): 0
- Velvetleaf plant response rating (velvetleaf; [14]): 0
- Rice plant response rating (rice [7]): 80
- Ducksalad plant response rating (ducksalad [8]; 62 g ai/ha, scale 0 to 100): 15
- Ducksalad plant response rating (ducksalad [8]; [15]): 45
- Ducksalad plant response rating (ducksalad [8]; [16]): 70
- Plant response rating, Ducksalad (ducksalad [8]; [17]): 90
- Foxtail, Giant plant response rating (0 to 100 scale) (giant foxtail; [11]): 0
- Plant response rating, Foxtail, Giant (giant foxtail; [12]): 20
- Foxtail, Giant plant response rating (giant foxtail; [13]): 0
- Foxtail, Giant plant response rating (giant foxtail; [14]): 0
- Corn plant response rating (0 to 100 scale) (corn; [11]): 0
- Plant response rating, Corn (corn; [12]): 0
- Corn plant response rating (corn; [13]): 0
- Corn plant response rating (corn; [14]): 10
- Oat, Wild plant response rating (wild oat; [13]): 20
- Oat, Wild plant response rating (wild oat; [14]): 30
- Morningglory plant response rating (0 to 100 scale) (morningglory; [11]): 0
- Plant response rating, Morningglory (morningglory; [12]): 10
- Morningglory plant response rating (morningglory; [13]): 0
- Morningglory plant response rating (morningglory; [14]): 10
- Pigweed plant response rating (0 to 100 scale) (pigweed; [11]): 0
- Plant response rating, Pigweed (pigweed; [12]): 100
- Pigweed plant response rating (pigweed; [13]): 50
- Pigweed plant response rating (pigweed; [14]): 60
- Rice plant response rating (rice [9]; 62 g ai/ha, scale 0 to 100): 0
- Rice plant response rating (rice [9]; [15]): 0
- Rice plant response rating (rice [9]; [16]): 5
- Plant response rating, Rice (rice [9]; [17]): 70
- Plant response rating, Lambsquarters (lambsquarters; [12]): 100
- Lambsquarters plant response rating (lambsquarters; [13]): 30
- Lambsquarters plant response rating (lambsquarters; [14]): 70
- Barnyardgrass plant response rating (barnyardgrass [10]): 70
